Our source for the Relative content and solubility in water values is patent US20260123631A1, “NATURAL PORPHIN SALT AND USE THEREOF AS PLANT GROWTH REGULATOR AND PLANT IMMUNITY INDUCER” (NANJING BOSTEC BIOLOGICAL ENGINEERING CO., LTD, priority 2022, published 2026).

A short description of series [1]: Stability of sample solutions in the dark/under light. In kind it is physicochemical. As to conditions: under light 30,000 lux, salts in water, acidic reference in 30% to 50% ethanol. The procedure: Determination: An appropriate amount of a salt sample was taken, dissolved with water, and diluted to prepare a test solution with a concentration of about 10 ppm. An acidic reference substance (extremely-insoluble in water) was prepared with a 30% to 50% ethanol aqueous solution into a test solution with a concentration of about 10 ppm.
Each test solution was scanned by an ultraviolet spectrophotometer (at 0 h) for absorbance in a range of 200 nm to 800 nm immediately after being prepared. Then a test solution of each sample was divided into two parts. One part was placed at room temperature of 25° C. in the dark, and the other part was placed under light with a light intensity of 30,000 lux. At 1 h, 2 h, and 3 h, a solution sample was collected and scanned for absorbance respectively.
An absorbance value of a maximum absorption peak at 0 h (starting) of each test solution was set as a relative content of 100%, and a ratio of an absorbance value at each time point to the absorbance value at 0 h was calculated to determine a relative content, %.

Series [2] can be described thus: Water solubility of the prepared salts. In kind it is physicochemical.

`C=CC1=C(C)c2cc3[n-]c(cc4nc(cc5[n-]c(cc1n2)c(C)c5C=C)C(C)=C4CCC(=O)[O-])c(CCC(=O)[O-])c3C.[Fe+3].[Na+].[Na+].[OH-]` [Sodium hydroxyhematin, sodium hydroxyhematin, reference compound]: the figures for the Relative content in series [1] (1 h), in series [1] (2 h) and in series [1] (3 h) were 70.21%, 62.33% and 57.03%, respectively. Further, in series [2], the solubility in water result is recorded as “easily soluble”.

Consider `C=CC1=C(C)c2cc3[n-]c(cc4nc(cc5[n-]c(cc1n2)c(C)c5C=C)C(C)=C4CCC(=O)[O-])c(CCC(=O)[O-])c3C.[Cl-].[Fe+3].[Mn+2]` [Example 15, manganese chlorhematin], for which the Relative content in series [1] (2 h) came out at 82.32%; in series [1] (3 h), 81.07%. Besides, in series [2], the solubility in water result is “slightly soluble”.

In the case of ferric hydroxyhematin [Example 68], the solubility in water entry in series [2] is given as “slightly soluble”.

In the case of “ferrous iron hydroxychlorophyllin [Example 76]”, the solubility in water entry in series [2] is on record as “slightly soluble”.

Regarding “zinc iron hydroxychlorophyllin [Example 79]”, the Relative content turned out to be 73.29% in series [1] (1 h), 69.57% in series [1] (2 h) and 65.55% in series [1] (3 h). In series [2], the solubility in water result is listed as “slightly soluble”.

As to magnesium hydroxyhematin [Example 64], the Relative content was 96.74% in series [1] (1 h), 93.78% in series [1] (2 h) and 93.33% in series [1] (3 h).

Turning to `C=CC1=C(C)c2cc3[n-]c(cc4nc(cc5[n-]c(cc1n2)c(C)c5C=C)C(C)=C4CCC(=O)[O-])c(CCC(=O)[O-])c3C.[Ca+2].[Cl-].[Fe+3]` [Example 14, calcium chlorhematin], the Relative content in series [1] (1 h) is reported as 82.53%; in series [1] (2 h), 81.78%; in series [1] (3 h), 81.97%. Further, in series [2], the solubility in water result was “soluble”.

For “potassium iron hydroxychlorophyllin [Example 71]”, the Relative content was found to be 62.96% in series [1] (1 h), 54.32% in series [1] (2 h) and 49.38% in series [1] (3 h). The solubility in water entry in series [2] is “easily soluble”.

For zinc hydroxyhematin [Example 69], the Relative content in series [1] (1 h) is 94.32%; in series [1] (2 h) it was 93.24%; in series [1] (3 h), 90.85%. The solubility in water result in series [2] is listed as “slightly soluble”.

Regarding “ferrous copper chlorophyllin [Example 48]”, the solubility in water entry in series [2] is reported as “slightly soluble”.

As for `C=CC1=C(C)c2cc3[nH]c(cc4nc(cc5[nH]c(cc1n2)c(C)c5C=C)C(C)=C4CCC(=O)[O-])c(CCC(=O)[O-])c3C.[Mn+2]` [Example 5, manganese protoporphyrin], the Relative content in series [1] (1 h) turned out to be 92.57%; in series [1] (2 h), 90.09%; in series [1] (3 h), 88.85%. In series [2], the solubility in water entry was “soluble”.

With “manganese iron hydroxychlorophyllin [Example 78]”, the Relative content in series [1] (1 h) was found to be 75.51%; in series [1] (2 h), 70.44%; in series [1] (3 h), 68.12%. Also, the solubility in water result in series [2] is “slightly soluble”.

As to `C=CC1=C(C)c2cc3[nH]c(cc4nc(cc5[nH]c(cc1n2)c(C)c5C=C)C(C)=C4CCC(=O)O)c(CCC(=O)O)c3C.N.N` [Example 2, ammonium protoporphyrin], the figures for the Relative content in series [1] (1 h), in series [1] (2 h) and in series [1] (3 h) were 60.29%, 48.76% and 45.99%, respectively. Besides, the solubility in water result in series [2] is given as “easily soluble”.

ferric chlorin [Example 58]: in series [2], the solubility in water result is given as “slightly soluble”.

In the case of `C=CC1=C(C)c2cc3[n-]c(cc4[n-]c(cc5nc(cc1n2)C(C)=C5C=C)c(C)c4CCC(=O)O)c(CCC(=O)O)c3C.[Fe+2]` [Example 6, ferrous protoporphyrin], the solubility in water entry in series [2] was “soluble”.

Regarding ferric iron chlorin [Example 26], the solubility in water result in series [2] is recorded as “slightly soluble”.

On to magnesium protoporphyrin [Example 3], for which the figures for the Relative content in series [1] (1 h), in series [1] (2 h) and in series [1] (3 h) were 93.32%, 90.98% and 89.65%, respectively. The solubility in water result in series [2] was “soluble”.

As for ferric protoporphyrin [Example 7], in series [2], the solubility in water result was “slightly soluble”.

Turning to ferric chlorhematin [Example 17], the solubility in water entry in series [2] is listed as “slightly soluble”.

Turning to “ferric copper chlorophyllin [Example 49]”, in series [2], the solubility in water result was “slightly soluble”.

For `C=CC1=C(C)c2cc3[nH]c(cc4nc(cc5[nH]c(cc1n2)c(C)c5C=C)C(C)=C4CCC(=O)[O-])c(CCC(=O)[O-])c3C.[Cu+2]` [Example 9, copper protoporphyrin], the Relative content turned out to be 96.42% in series [1] (1 h), 95.56% in series [1] (2 h) and 94.88% in series [1] (3 h). Further, in series [2], the solubility in water result was “slightly soluble”.

For ferrous zinc chlorophyllin [Example 38], the solubility in water entry in series [2] is reported as “slightly soluble”.

In the case of ferrous iron chlorin [Example 25], the solubility in water entry in series [2] was “slightly soluble”.

For the molecule ferric iron chlorophyllin [Example 33], the solubility in water entry in series [2] is given as “slightly soluble”.

In the case of copper hydroxyhematin [Example 70], the Relative content is reported as 96.20% in series [1] (1 h), 95.71% in series [1] (2 h) and 92.81% in series [1] (3 h). In series [2], the solubility in water entry is reported as “slightly soluble”.

ferrous chlorin [Example 57]: in series [2], the solubility in water entry is “slightly soluble”.

In the case of potassium hydroxyhematin [Example 62], the Relative content in series [1] (1 h) was determined as 77.06%; in series [1] (2 h), 75.72%; in series [1] (3 h) it was 73.04%. The solubility in water entry in series [2] is “easily soluble”.

For `C=CC1=C(C)c2cc3[n-]c(cc4nc(cc5[n-]c(cc1n2)c(C)c5C=C)C(C)=C4CCC(=O)[O-])c(CCC(=O)[O-])c3C.[Cl-].[Fe+3].[NH4+].[NH4+]` [Example 12, ammonium chlorhematin], the results for the Relative content in series [1] (1 h), in series [1] (2 h) and in series [1] (3 h) were 73.07%, 67.80% and 66.25%, respectively. Also, the solubility in water entry in series [2] is on record as “easily soluble”.

As for `C=CC1=C(C)c2cc3[n-]c(cc4nc(cc5[n-]c(cc1n2)c(C)c5CCC(=O)[O-])C(CCC(=O)[O-])=C4C)c(C)c3C=C.[Cl-].[Fe+3].[Zn+2]` [Example 18, zinc chlorhematin], the figures for the Relative content in series [1] (1 h), in series [1] (2 h) and in series [1] (3 h) were 93.45%, 93.10% and 92.74%, respectively. The solubility in water entry in series [2] was “slightly soluble”.

For `C=CC1=C(C)c2cc3[n-]c(cc4nc(cc5[n-]c(cc1n2)c(C)c5CCC(=O)[O-])C(CCC(=O)[O-])=C4C)c(C)c3C=C.[Cl-].[Cu+2].[Fe+3]` [Example 19, copper chlorhematin], the Relative content is reported as 95.23% in series [1] (1 h), 95.03% in series [1] (2 h) and 93.04% in series [1] (3 h). For the same molecule, the solubility in water entry in series [2] is “slightly soluble”.

Take “magnesium iron hydroxychlorophyllin [Example 74]”: the Relative content in series [1] (1 h) came out at 80.48%; in series [1] (2 h), 67.53%; in series [1] (3 h), 67.13%.

Turning to manganese hydroxyhematin [Example 66], the Relative content is 87.45% in series [1] (1 h), 83.77% in series [1] (2 h) and 80.00% in series [1] (3 h). In series [2], the solubility in water entry is “slightly soluble”.

As to `C=CC1=C(C)c2cc3[nH]c(cc4nc(cc5[nH]c(cc1n2)c(C)c5C=C)C(C)=C4CCC(=O)[O-])c(CCC(=O)[O-])c3C.[Ca+2]` [Example 4, calcium protoporphyrin], the Relative content in series [1] (1 h) amounted to 90.07%; in series [1] (2 h), 87.11%; in series [1] (3 h) it was 85.89%. Moreover, in series [2], the solubility in water entry is given as “soluble”.

With ferrous iron chlorophyllin [Example 32], the solubility in water entry in series [2] is “slightly soluble”.

Regarding “sodium iron hydroxychlorophyllin [Example 72]”, the figures for the Relative content in series [1] (1 h), in series [1] (2 h) and in series [1] (3 h) were 60.39%, 52.14% and 47.32%, respectively. Moreover, the solubility in water entry in series [2] is “easily soluble”.

As for ferrous hydroxyhematin [Example 67], the solubility in water entry in series [2] is given as “slightly soluble”.

Consider “copper iron hydroxychlorophyllin [Example 80]”, for which the Relative content is given as 79.89% in series [1] (1 h), 76.11% in series [1] (2 h) and 73.21% in series [1] (3 h). The solubility in water entry in series [2] is “slightly soluble”.

On to “ferric iron hydroxychlorophyllin [Example 77]”, for which the solubility in water entry in series [2] is listed as “slightly soluble”.

ferric zinc chlorophyllin [Example 39]: the solubility in water entry in series [2] was “slightly soluble”.

`C=CC1=C(C)c2cc3[n-]c(cc4nc(cc5[n-]c(cc1n2)c(C)c5CCC(=O)[O-])C(CCC(=O)[O-])=C4C)c(C)c3C=C.[Cl-].[Fe+2].[Fe+3]` [Example 16, ferrous chlorhematin]: the solubility in water result in series [2] is recorded as “slightly soluble”.
